Reference: patent US6469042B1, “Fluoro oxindole derivatives as modulators if KCNQ potassium channels” (Bristol-Myers Squibb Company, priority 2001, dated 2002)
Marks after values point to notes of the source that are not given here.

How the values were obtained:
[1] = biological target: T1, cloned mouse KCNQ2 (mKCNQ2) (Mus musculus, UniProt Q9Z351); assay: KCNQ oocyte two-electrode voltage clamp, KCNQ2-mediated outward current; type: cell-based; settings: expressed as percent increase over KCNQ current in controls, Xenopus oocytes
T1 construct: expressed in transfected cells; host or cells: Xenopus oocytes injected with mKCNQ2 cRNA
Method: The ability of compounds described in the present invention to open KCNQ channels and increase whole-cell outward (K^+) KCNQ-mediated currents was assessed under voltage-clamp conditions by determining their ability to increase cloned mouse KCNQ2 (mKCNQ2)-mediated, heteromultimeric KCNQ2/3 (mμKCNQ2/3)-mediated, and human KCNQ5 (hKCNQ5)-mediated outward currents heterologously expressed in Xenopus oocytes. Oocytes were prepared and injected using standard techniques; each oocyte was injected with approximately 50 nl of mKCNQ2, or hKCNQ5 cRNA. In the case of mKCNQ2/3 heteromultimeric channel expression, equal amounts (25-50 nL) of ech cRNA were co-injected. […] Following injection, oocytes were maintained at 17° in ND96 medium consisting of (in mM): NaCl, 90; KCl, 1.0; CaCl2, 1:0; MgCl2, 1:0; HEPES, 5.0; pH 7.5. Horse serum (5%) and penicillin/streptomyin (5%) were added to the incubation medium. Recording commenced 2-6 days following mRNA injection. Prior to the start of an experiment oocytes were placed in a recording chamber and incubated in Modified Barth's Solution (MBS) consisting of (in mM): NaCl, 88; NaHCO3, 2.4; KCl, 1.0; HEPES, 10; MgSO4, 0.82; Ca(NO3)2, 0.33; CaCl2, 0.41; pH 7.5.
Oocytes were impaled with electrodes (1-2 MΩ) and standard 2-electrode voltage clamp techniques were employed to record whole-cell membrane currents. Recordings were accomplished using standard two-electrode voltage clamp techniques [Stuhmer, W., et al., Methods in Enzymolgy, Vol. 207: 319-339 (1992)]. Voltage-clamp protocols typically consisted of a series of voltage steps 1-5 sec duration, in +10 mV steps from a holding potential of −90 mV to a maximal potential of +40 mV; records were digitized at 5 kHz and stored on a computer using pClamp data acquisition and analysis software (Axon Instruments). Compounds were evaluated at a single concentration (10 or 20 μM); the effect of the selected compounds of Formula I on KCNQ2 current was expressed as the percent of control current and is listed in Table I.

[2] = system: SSS-stimulated trigeminal field response in trigeminal nucleus caudalis; assay: In vivo electrophysiology: superior sagital sinus (SSS)-stimulated trigeminal field response (migraine model); parameters: species or system rat
From the text: Male Long-Evans rats (Harlan, 250-400 g) were used in the experiments described in this example. Prior to testing, rats were allowed access to food and water ad libitum and were maintained on a 12:12-h light/dark cycle. Rats were group housed in an Association for Assessment and Accreditation of Laboratory Animal Care (AAALAC) accredited facility and cared for in strict compliance with all applicable regulations.
Rats were anesthetized with 1.2 g/kg i.p. urethane (#U-2500, Sigma Chemical Company, St. Louis, Mo.) and given supplemental urethane as needed. In the case of intravenous (i.v.) drug administration, the jugular veins of the rats were cannulated using sylastic tubing pre-filled with vehicle.
Rats were placed in a stereotaxic device (#1730, David Kopf Instruments, Tujunga, Calif.) and an incision was made to expose the entire skull that continued caudally to the level of the C1/C2 vertebral juncture. Using a microdrill (#770, Dremel, Racine, Wis.) and #4 carbide burr (Henry Schein, Melville, N.Y.), a square section of skull was removed extending from the bregma position, rostrally, to the lambda position, caudally. […]
Stimulated field responses were recorded in the trigeminal nucleus caudalis using Teflon coated stainless-steel microelectrodes (5 megaohms impedance, Frederick Haer, Brunswick, Me.) and amplified and filtered (0.1 Hz-10 kHz) using a differential amplifier (#IsoDAM8, World Precision Instruments, Sarasota, Fla.). […]
Three baseline measures (i.e., 100% of control), each consisting of 100 evoked trigeminal field potentials, were sampled prior to drug injection. […] Following injection of test substances, data were sampled for 1 hour, averaged into 5 minute bins (90 evoked potentials) and expressed as a percent change from average baseline values for the purposes of statistical analysis. Data were analyzed using repeated measures analyses of variance comparing vehicle and drug effects. […]

T1 sequence (Q9Z351 whole entry): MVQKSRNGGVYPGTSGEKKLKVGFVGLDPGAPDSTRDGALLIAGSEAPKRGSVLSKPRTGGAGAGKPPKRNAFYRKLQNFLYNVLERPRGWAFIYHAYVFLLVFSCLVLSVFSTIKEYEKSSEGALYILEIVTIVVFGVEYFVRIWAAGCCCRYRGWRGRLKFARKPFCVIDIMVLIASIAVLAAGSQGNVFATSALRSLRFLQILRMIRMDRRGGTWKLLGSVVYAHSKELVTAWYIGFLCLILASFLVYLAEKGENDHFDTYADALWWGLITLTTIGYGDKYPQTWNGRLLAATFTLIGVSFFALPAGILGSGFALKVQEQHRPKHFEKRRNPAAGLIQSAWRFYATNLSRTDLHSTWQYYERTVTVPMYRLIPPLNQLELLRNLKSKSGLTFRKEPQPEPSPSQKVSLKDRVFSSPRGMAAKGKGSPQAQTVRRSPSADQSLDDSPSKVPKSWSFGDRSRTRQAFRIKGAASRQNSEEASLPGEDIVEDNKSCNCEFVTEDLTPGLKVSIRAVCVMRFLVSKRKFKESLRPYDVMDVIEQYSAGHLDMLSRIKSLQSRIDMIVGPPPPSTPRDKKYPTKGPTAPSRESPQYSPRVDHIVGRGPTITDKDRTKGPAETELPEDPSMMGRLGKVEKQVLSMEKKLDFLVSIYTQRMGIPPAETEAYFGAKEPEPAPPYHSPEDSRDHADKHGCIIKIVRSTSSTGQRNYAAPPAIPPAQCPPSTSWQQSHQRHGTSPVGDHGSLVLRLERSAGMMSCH

| Compound | melting point | KCNQ2 Current ([1]; at 20 μM) | also measured |
| --- | --- | --- | --- |
| O=C1Nc2cc(C(F)(F)F)ccc2C1(F)c1cc(Cl)ccc1OCC(F)(F)F (racemic) [Example 1, (±)-3-[5-Chloro-2-[(2,2,2-trifluoroethoxy)phenyl]-1,3-dihydro-3-fluoro-6-(trifluoromethyl)-2H-indol-2-one] | – | – | KCNQ2 Current ([1]; at 10 μM): ++** (++ = >150%) |
| O=C1Nc2cc(C(F)(F)F)ccc2C1(F)c1cc(Cl)ccc1OCC(F)(F)F (racemic) [Example 2, (±)-3-[5-Chloro-2-[(2,2,2-trifluoroethoxy)phenyl]-1,3-dihydro-3-fluoro-6-(trifluoromethyl)-2H-indol-2-one] | – | – | KCNQ2 Current ([1]; at 10 μM): ++** (++ = >150%); decrease from control amplitude of SSS-stimulated trigeminal field response ([2]; 50 mg/kg i.v., anesthetized Long-Evans rats, solution in 100% polyethylene glycol 400): 86.7±1.67%; reduction of trigeminal field response compared with vehicle ([2]; doses 0.1, 1.0, 10.0, 30.0 and 50.0 mg/kg i.v., p<0.01 in all cases): Significant reductions compared with vehicle; reduction in the SSS-stimulated trigeminal field response ([2]; i.v., rats, overall ANOVA p<0.001): dose-dependent reduction |
| O=C1Nc2cc(F)ccc2C1(F)c1cc(Cl)ccc1OCC(F)(F)F (racemic) [Example 6, (±)-3-[5-Chloro-2-(2,2,2-trifluoroethoxy)phenyl]-1,3-dihydro-3,6-difluoro-2H-indol-2-one] | 200 to 202 °C | – | – |
| O=C1Nc2cc(CF)ccc2C1(F)c1cc(Cl)ccc1OCC(F)(F)F (racemic) [Example 7, (±)-3-[5-Chloro-2-(2,2,2-trifluoroethoxy)phenyl]-1,3-dihydro-3-fluoro-6-(fluoromethyl)-2H-indol-2-one] | 150 to 151 °C | – | – |
| O=C1Nc2cc(F)c(F)cc2C1(F)c1cc(Cl)ccc1OCC(F)(F)F (racemic) [Example 10, (±)-3-[5-Chloro-2-(2,2,2-trifluoroethoxy)phenyl]-1,3-dihydro-3,5,6-trifluoro-2H-indol-2-one] | 200 to 203 °C | + (+ = 120-150%) | – |
| O=C1Nc2cc(Cl)ccc2C1(F)c1cc(Cl)ccc1OCC(F)(F)F (racemic) [Example 11, (±)-6-Chloro-3-[5-chloro-2-(2,2,2-trifluoroethoxy)phenyl]-1,3-dihydro-3-fluoro-2H-indol-2-one] | 167 to 169 °C | ++ (++ = >150%) | – |
| O=C1Nc2cc(C(F)(F)F)ccc2C1(F)c1cc(Cl)ccc1OCCF (racemic) [Example 14, (±)-3-[5-Chloro-2-(2-fluoroethoxy)phenyl]-1,3-dihydro-3-fluoro-6-(trifluoromethyl)-2H-indol-2-one] | – | + (+ = 120-150%) | – |
| O=C1Nc2cc(-c3ccc(C(F)(F)F)cc3)ccc2C1(F)c1cc(Cl)ccc1OCC(F)(F)F (racemic) [Example 23, (±)-3-[5-Chloro-2-(2,2,2-trifluoroethoxy)phenyl]-1,3-dihydro-3-fluoro-6-[4-(trifluoromethyl)phenyl]-2H-indol-2-one] | 103 to 105 °C | – | – |
| O=C1Nc2cc(Cl)ccc2C1(F)c1cc(Cl)ccc1OCC(F)(F)F (single isomer, unassigned; (+)) [Example 12, (+)-6-Chloro-3-[5-chloro-2-(2,2,2-trifluoroethox)phenyl]-1,3-dihydro-3-fluoro-2H-indol-2-one] | – | ++ (++ = >150%) | – |
| CCSc1ccc(Cl)cc1C1(F)C(=O)Nc2cc(C(F)(F)F)ccc21 (stereo not shown) [Example 17, 3-[5-Chloro-2-(ethylthio)phenyl]-1,3-dihydro-3-fluoro-6-(trifluoromethyl)-2H-indol-2-one] | 105 to 107 °C | – | – |
| (±)-3-[5-Chloro-2-(2,2,2-trifluoroethoxy)phenyl]-5,6-dichloro-1,3-dihydro-3-fluoro-2H-indol-2-one [Example 9] | – | + (+ = 120-150%) | – |
